# Active and inactive are the calls of the source. No cut-off for these calls is given here.
# Legend:
# [1] = Metabolic stability in human liver microsomes assessed as half-life preincubated for 10 mins followed by NADPH addition and measured after 60 mins by LC-MS/MS analysis; assay type: ADME, Microsome; details: time 70 min
# [2] = Metabolic stability in human liver microsomes assessed as parent compound remaining preincubated for 10 mins followed by NADPH addition and measured after 60 mins by LC-MS/MS analysis; assay type: ADME, Microsome; details: time 70 min, read-out: Stability
# [3] = tested on: Cryptococcus neoformans; test: Antifungal activity against Cryptococcus neoformans CGMCC 2.3161 assessed as inhibition of fungal growth by CLSI M27-A3 guidelines based method; assay type: functional
# [4] = tested on: Candida albicans; test: Antifungal activity against Candida albicans SC5314 assessed as inhibition of fungal growth by CLSI M27-A3 guidelines based method; assay type: functional
# [5] = tested on: Candida parapsilosis; test: Antifungal activity against Candida parapsilosis GIM 2.190 assessed as inhibition of fungal growth by CLSI M27-A3 guidelines based method; assay type: functional; details: Lodderomyces parapsilosis
# [6] = tested on: Nakaseomyces glabratus; test: Antifungal activity against Candida glabrata assessed as inhibition of fungal growth by CLSI M27-A3 guidelines based method; assay type: functional
# [7] = tested on: Pichia kudriavzevii; test: Antifungal activity against Candida krusei GIM 2.1 assessed as inhibition of fungal growth by CLSI M27-A3 guidelines based method; assay type: functional
# [8] = tested on: Candida tropicalis; test: Antifungal activity against Candida tropicalis GIM 2.183 assessed as inhibition of fungal growth by CLSI M27-A3 guidelines based method; assay type: functional
# [9] = tested on: Candida albicans; test: Antifungal activity against Candida albicans GIM 2.194 assessed as inhibition of fungal growth by CLSI M27-A3 guidelines based method; assay type: functional
# [10] = tested on: Candida albicans; test: Fungicidal activity fluconazole and iodiconazole resistant Candida albicans clinical isolate 17# assessed as decrease in number of fungi at 1 times of MIC measured within 24 hrs by time-kill kinetics assay; assay type: functional, organism-based
# [11] = AUC (0 to infinity) in Sprague-Dawley rat at 3 mg/kg, iv by LC-MS/MS analysis; assay type: ADME, organism-based; details: in vivo
# [12] = Apparent volume of distribution in Sprague-Dawley rat at 3 mg/kg, iv by LC-MS/MS analysis; assay type: ADME, organism-based; details: in vivo, read-out: Vz
# [13] = Cytotoxicity against human NCI-H460 cells assessed as inhibition of cell growth incubated for 72 hrs by MTT assay; assay type: toxicity, cell-based
# [14] = tested on: Candida albicans; test: Effect on sterol composition in Candida albicans SC5314 assessed as lanosterol content at 0.05 microg/ml measured after 16 hrs by GC-MS analysis relative to control; assay type: functional; details: dose 0.05 µg/ml
# [15] = tested on: Candida albicans; test: Fungicidal activity against Candida albicans SC5314 incubated for 48 hrs by PDA plate based method; assay type: functional
# [16] = tested on: Candida albicans; test: Antifungal activity against fluconazole-resistant Candida albicans clinical isolate 901 assessed as inhibition of fungal growth by CLSI M27-A3 guidelines based method; assay type: functional
# [17] = Oral bioavailability in Sprague-Dawley rat at 10 mg/kg by LC-MS/MS analysis; assay type: ADME, organism-based; details: in vivo
# [18] = Cytotoxicity against HEK293T cells assessed as inhibition of cell growth incubated for 72 hrs by MTT assay; assay type: toxicity, cell-based, HEK-293T; details: human
# [19] = tested on: Candida albicans; test: Antifungal activity against fluconazole-resistant Candida albicans CaR assessed as inhibition of fungal growth by CLSI M27-A3 guidelines based method; assay type: functional
# [20] = Cmax in Sprague-Dawley rat at 3 mg/kg, iv by LC-MS/MS analysis; assay type: ADME, organism-based; details: in vivo
# [21] = tested on: Candida albicans; test: Effect on sterol composition in Candida albicans SC5314 assessed as obtusifoliol content at 0.05 microg/ml measured after 16 hrs by GC-MS analysis relative to control; assay type: functional; details: dose 0.05 µg/ml
# [22] = Cytotoxicity against human OVCAR-3 cells assessed as inhibition of cell growth incubated for 72 hrs by MTT assay; assay type: toxicity, cell-based
# [23] = tested on: Candida albicans; test: Effect on sterol composition in Candida albicans SC5314 assessed as ergosterol content at 0.05 microg/ml measured after 16 hrs by GC-MS analysis (reference value: 96.96 %); assay type: functional; details: dose 0.05 µg/ml
# [24] = Cmax in Sprague-Dawley rat at 10 mg/kg, po by LC-MS/MS analysis; assay type: ADME, organism-based; details: in vivo
# [25] = tested on: Candida albicans; test: Antibiofilm activity against fluconazole-resistant Candida albicans CPCC400616 assessed as inhibition of metabolic activity of biofilm measured after 6 hrs by XTT reduction assay; assay type: functional
# [26] = tested on: Candida albicans; test: Antifungal activity against fluconazole-resistant Candida albicans clinical isolate 632 assessed as inhibition of fungal growth by CLSI M27-A3 guidelines based method; assay type: functional
# [27] = MRT(0 to t) in Sprague-Dawley rat at 3 mg/kg, iv by LC-MS/MS analysis; assay type: ADME, organism-based; details: in vivo
# [28] = tested on: Candida albicans; test: Effect on sterol composition in Candida albicans SC5314 assessed as 14alpha-demethyllanosterol content at 0.05 microg/ml measured after 16 hrs by GC-MS analysis (reference value: […] %); assay type: functional; details: dose 0.05 µg/ml
# [29] = Half-life in Sprague-Dawley rat at 3 mg/kg, iv by LC-MS/MS analysis; assay type: ADME, organism-based; details: in vivo
# [30] = tested on: Candida albicans; test: Antifungal activity against fluconazole-resistant Candida albicans clinical isolate 311 assessed as inhibition of fungal growth by CLSI M27-A3 guidelines based method; assay type: functional
# [31] = Clearance in Sprague-Dawley rat at 3 mg/kg, iv by LC-MS/MS analysis; assay type: ADME, organism-based; details: in vivo
# [32] = tested on: Candida albicans; test: Antifungal activity against fluconazole-resistant Candida albicans clinical isolate 904 assessed as inhibition of fungal growth by CLSI M27-A3 guidelines based method; assay type: functional
# [33] = Tmax in Sprague-Dawley rat at 10 mg/kg, po by LC-MS/MS analysis; assay type: ADME, organism-based; details: in vivo
# [34] = tested on: Candida albicans; test: Antibiofilm activity against fluconazole-resistant Candida albicans CPCC400616 assessed as inhibition of metabolic activity of biofilm measured after 24 hrs by XTT reduction assay; assay type: functional
# [35] = Tmax in Sprague-Dawley rat at 3 mg/kg, iv by LC-MS/MS analysis; assay type: ADME, organism-based; details: in vivo
# [36] = Half-life in Sprague-Dawley rat at 10 mg/kg, po by LC-MS/MS analysis; assay type: ADME, organism-based; details: in vivo
# [37] = tested on: Candida albicans; test: Fungicidal activity fluconazole and iodiconazole resistant Candida albicans clinical isolate 17# assessed as decrease in number of fungi at 4 times of MIC measured within 24 hrs by time-kill kinetics assay; assay type: functional, organism-based
# [38] = tested on: Candida albicans; test: Fungicidal activity fluconazole and iodiconazole resistant Candida albicans clinical isolate 17# assessed as decrease in number of fungi at 2 times of MIC measured within 24 hrs by time-kill kinetics assay; assay type: functional, organism-based
# [39] = tested on: Candida albicans; test: Antifungal activity against fluconazole and iodiconazole resistant Candida albicans clinical isolate 17# assessed as inhibition of fungal growth by CLSI M27-A3 guidelines based method; assay type: functional
# [40] = tested on: Aspergillus fumigatus; test: Antifungal activity against Aspergillus fumigatus cgmcc 3.7795 assessed as inhibition of fungal growth by CLSI M27-A3 guidelines based method; assay type: functional
# [41] = tested on: Candida albicans; test: Fungicidal activity against fluconazole and iodiconazole resistant Candida albicans clinical isolate 17# incubated for 48 hrs by PDA plate based method; assay type: functional
# [42] = tested on: Candida albicans; test: Antifungal activity against fluconazole-resistant Candida albicans clinical isolate 100 assessed as inhibition of fungal growth by CLSI M27-A3 guidelines based method; assay type: functional
# [43] = tested on: Candida albicans; test: Effect on sterol composition in Candida albicans SC5314 assessed as other sterols content at 0.05 microg/ml measured after 16 hrs by GC-MS analysis (reference value: 1.06 %); assay type: functional; details: dose 0.05 µg/ml
# [44] = tested on: Candida albicans; test: Inhibition of hyphal formation in fluconazole-resistant Candida albicans CPCC400616 assessed as reduction in invasive ability at 2 microg/ml measured after 4 hrs by inverted microscopic analysis; assay type: functional, organism-based; details: dose 2.0 µg/ml
# [45] = AUC (0 to infinity) in Sprague-Dawley rat at 10 mg/kg, po by LC-MS/MS analysis; assay type: ADME, organism-based; details: in vivo
# [46] = tested on: Candida albicans; test: Effect on sterol composition in Candida albicans SC5314 assessed as eburicol content at 0.05 microg/ml measured after 16 hrs by GC-MS analysis relative to control; assay type: functional; details: dose 0.05 µg/ml
# [47] = Cytotoxicity against HUVEC cells assessed as inhibition of cell growth incubated for 72 hrs by MTT assay; assay type: toxicity, cell-based; details: human
# [48] = tested on: Candida albicans; test: Antifungal activity against fluconazole-resistant Candida albicans clinical isolate 103 assessed as inhibition of fungal growth by CLSI M27-A3 guidelines based method; assay type: functional
compound,measurement,setting,value
CN(Cc1ccc(C#Cc2ccccc2)cc1)CC(O)(Cn1cncn1)c1ccc(F)cc1F (configuration not stated),half-life,[1],0.0732 h
same,remaining at 1 h,[2],0.936%
same,MIC80,[3],0.025 µg/mL
same,MIC80,[4],0.013 µg/mL
same,MIC80,[5],0.013 µg/mL
same,MIC80,[6],0.1 µg/mL
same,MIC80,[7],0.05 µg/mL
same,MIC80,[8],0.013 µg/mL
same,MIC80,[9],0.013 µg/mL
C[C@@H](N(C)Cc1ccc(C#Cc2ccc(F)cc2F)cc1)[C@](O)(Cn1cncn1)c1ccc(F)cc1F,Activity,[10],Active
same,half-life,[1],0.503 h
same,remaining at 1 h,[2],25.9%
same,AUC(0-inf),[11],1830 ng·h/mL
same,Vd,[12],15.7 L/kg
same,IC50 at 72 h,[13],> 10 µM
same,MIC80,[3],0.013 µg/mL
same,Activity,[14],9.97%
same,MIC80,[4],0.006 µg/mL
same,MIC80,[5],0.006 µg/mL
same,MFC,[15],0.125 µg/mL
same,MIC80,[16],4 µg/mL
same,bioavailability,[17],26.3%
same,IC50 at 72 h,[18],> 10 µM
same,MIC80,[19],0.25 µg/mL
same,Cmax,[20],2460 ng/mL
same,MIC80,[6],0.01 µg/mL
same,MIC80,[7],0.01 µg/mL
same,Activity,[21],13.69%
same,IC50 at 72 h,[22],> 10 µM
same,MIC80,[8],0.006 µg/mL
same,Activity,[23],0.29%
same,MIC80,[9],0.006 µg/mL
same,Cmax,[24],283 ng/mL
same,MIC50,[25],0.5 µg/mL
same,MIC80,[26],4 µg/mL
same,MRT last,[27],1.92 h
same,Activity,[28],2.79%
same,half-life,[29],6.57 h
same,MIC80,[30],8 µg/mL
same,clearance,[31],27.5 mL/min/kg
same,MIC80,[32],8 µg/mL
same,Tmax,[33],2.33 h
same,MIC50,[34],4 µg/mL
same,Tmax,[35],4.98 min
same,half-life,[36],4.08 h
same,Activity,[37],Active; Effectively Kills Fungal Cells In Viable Colony Counts
same,Activity,[38],Active
same,MIC80,[39],0.25 µg/mL
same,MIC80,[40],0.05 µg/mL
same,MFC,[41],1 µg/mL
same,MIC80,[42],4 µg/mL
same,Activity,[43],3.13%
same,inhibition,[44],Active; Blockade Of Morphological Transformation Observed
same,AUC(0-inf),[45],1600 ng·h/mL
same,Activity,[46],70.13%
same,IC50 at 72 h,[47],> 10 µM
same,MIC80,[48],4 µg/mL
